Test results taken from US12404284B2, “Spirocyclic inhibitors of hepatitis B virus” (Ospedale San Raffaele S.r.l., priority 2020, dated 2025).

Tests used:
HBV [1] = details: Phase 1b clinical studies; cited from earlier work
HBV [2] = experiment: Anti-HBV activity in vitro: extracellular HBV DNA by direct qPCR in HepAD38 cells; type: cell-based; details: Hepatitis B virus, doxycycline-free medium, 96 hours, read-out: HBV inh EC50
Excerpt: HepAD38 cell line (Ladner et al., Antimicrob Agents Chemother, 1997, 41, 1715-20) was used for HBV inhibition assays. HepAD38 is a subclone, derived from hepatoblastoma cell line HepG2 (ATCC® Number: HB-8065™), that expresses HBV genome under the transcriptional control of a tetracycline-responsive promoter in a TET-OFF system: addition of doxycycline, an antibiotic belonging to the class of tetracycline, suppresses HBV replication, while its removal switches on the process allowing HBV viral particles release in the cell supernatant. […]
Anti-HBV activity in vitro HBV inhibition activity in vitro was performed in 96 multiwell plates. […] From the dose-response curves, half maximal effective concentration (EC50) could be calculated (see also below). […]
Plates were then incubated 96 hours at 37° C. and then subjected to cell viability assays and extracellular HBV quantification, in order to evaluate both the cytotoxic potential and the anti-viral activity of compounds. Cytotoxicity was assessed by a commercial fluorescence assay that measures the metabolic activity of cells, directly related to cell viability (Cell Titer Blue, Promega). Anti-HBV activity was evaluated by quantification of extracellular HBV DNA with direct qPCR. […]

| SMILES | reduction in HBV DNA (HBV [1]) | reduction in serum HBV RNA (HBV [1]) | EC50 (HBV [2]) |
| --- | --- | --- | --- |
| O=C(Nc1cc(F)c(F)c(F)c1)c1ccc(F)c(S(=O)(=O)N2CCC(O)CC2)c1 [NVR3-778] | significant reduction | significant reduction | – |
| Cn1cc2c(c1C(=O)Nc1ccc(F)c(Cl)c1)OC[C@@]1(CCN(C(=O)C(=O)NCC(F)(F)F)C1)NS2(=O)=O [Example E25, (S)—N-(3-chloro-4-fluorophenyl)-7′-methyl-1-(2-oxo-2-((2,2,2-trifluoroethyl)amino)acetyl)-2′H,4′H,7′H-spiro[pyrrolidine-3,3′-pyrrolo[3,4-b][1,4,5]oxathiazepine]-6′-carboxamide 1′,1′-dioxide] | – | – | < 500 nM |
| C[C@@H](NC(=O)C(=O)N1CCC2(CC1)COc1c(c(Cl)n(C)c1C(=O)Nc1ccc(F)c(C(F)F)c1)S(=O)(=O)N2)C(F)(F)F [Example E35, (R)-8′-chloro-N-(3-(difluoromethyl)-4-fluorophenyl)-7′-methyl-1-(2-oxo-2-((1,1,1-trifluoropropan-2-yl)amino)acetyl)-2′H,4′H,7′H-spiro[piperidine-4,3′-pyrrolo[3,4-b][1,4,5]oxathiazepine]-6′-carboxamide 1′,1′-dioxide] | – | – | < 500 nM |
